# Assay results published in article PMC11374673, “Discovery of isoquinoline sulfonamides as allosteric gyrase inhibitors with activity against fluoroquinolone-resistant bacteria” (Nature Chemistry, 2024).
# Read-outs that look alike come from different tables or passages of the source.
# Key:
# E. coli W3110 [1] = test: MIC by broth microdilution; format: cell-based, Escherichia coli; conditions: Escherichia coli
# Method in brief: (§1)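 Broth microdilution in CAMHB: twofold compound series inoculated with 100-fold-diluted bacteria from exponential growth (OD600 0.5, 37 °C); kanamycin 50 µg ml^−1 added for Keio collection strains. Overnight incubation, 37 °C, 600 r.p.m. shaking.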
# K. pneumoniae ATCC 29665 = test: MIC by broth microdilution; format: cell-based, Klebsiella pneumoniae; conditions: Klebsiella pneumoniae
# Method in brief: as §1
# A. baumannii ATCC BAA747 = test: MIC by broth microdilution; format: cell-based
# Protocol: (§2) MIC was determined by broth microdilution. Single-colony cultures were grown to exponential phase (OD600 of 0.5) aerobically at 37 °C. In case of strains from the Keio collection, 50 µg ml^−1 kanamycin was supplemented to the media to ascertain a homogeneous population. The bacterial suspensions were diluted 100-fold in CAMHB and 50 µl was added to a twofold serial dilution series of test compounds (50 µl per well) in polypropylene 96-well microtitre plates to reach a volume of 100 µl. The plates were sealed with breathable membranes and incubated overnight at 37 °C with constant shaking (600 r.p.m.). The MIC was determined as the lowest concentration at which no visible bacterial growth was observed as compared with the inoculum controls from the median of a minimum of triplicates.
# P. aeruginosa ATCC 27853 = test: MIC by broth microdilution; format: cell-based
# Protocol: as §2
# [2] = test system: S. aureus ATCC 29213 / ATCC BAA1717; test: MIC by broth microdilution; format: cell-based
# Protocol: as §2
# E. coli ATCC 25922 = test: MIC by broth microdilution; format: cell-based
# Protocol: as §2, with “r.p.m.).” for “r.p.m.). The MIC was determined as the lowest concentration at which no visible bacterial growth was observed as compared with the inoculum controls from the median of a minimum of triplicates.”
# [3] = test system: clinical isolates of E. coli; test: MIC against clinical isolates and potentiation by 4 µM PMBN; format: cell-based, Escherichia coli; conditions: for MSC: with 4 µM PMBN; for MIC: Escherichia coli
# Protocol: as §2, with “r.p.m.).” for “r.p.m.). The MIC was determined as the lowest concentration at which no visible bacterial growth was observed as compared with the inoculum controls from the median of a minimum of triplicates.”
# E. coli W3110 [4] = test: Checkerboard assay with PMBN;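 for checkerboard plate reading, Average values: OD600 read after 20 h incubation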
# [5] = ATCC29665, broth microdilution, read-out: MIC K. pneumoniae ATCC 29665
# [6] = Acinetobacter baumannii, ATCCBAA747; read-out: MIC A. baumannii ATCC BAA747
# [7] = Pseudomonas aeruginosa, ATCC27853; read-out: MIC P. aeruginosa ATCC 27853
# [8] = Staphylococcus aureus; read-out: MIC S. aureus ATCC 29213
# [9] = Staphylococcus aureus; read-out: MIC S. aureus ATCC BAA1717
# [10] = Escherichia coli, ATCC25922; read-out: MIC E. coli ATCC 25922
# [11] = E. coli 1075, fold change in MIC after 4 µM PMBN
# [12] = E. coli 552059.1, fold change in MIC after 4 µM PMBN
# [13] = E. coli 552060.1, fold change in MIC after 4 µM PMBN
# [14] = E. coli MVAST0072, fold change in MIC after 4 µM PMBN
# [15] = E. coli NCTC13463, fold change in MIC after 4 µM PMBN
# [16] = E. coli NCTC13846, fold change in MIC after 4 µM PMBN
# [17] = E. coli mcr-1, fold change in MIC after addition of 4 µM PMBN
# [18] = E. coli 1075 (MDR), read-out: MIC
# [19] = E. coli 552059.1, read-out: MIC
# [20] = E. coli 552060.1, read-out: MIC
# [21] = E. coli MVAST0072 (MDR), read-out: MIC
# [22] = NCTC13463, E. coli NCTC13463 (ESBL), read-out: MIC
# [23] = NCTC13846, E. coli NCTC13846 (MDR, mcr-1)
# [24] = ATCC29665, read-out: MIC K. pneumoniae ATCC 29665
smiles,measurement,setting,value
O=S(=O)(NC[C@@H]1CC[C@H](c2ccc(-c3ccc(F)cc3)cc2)N1)c1cccc2cnccc12 [Compound 101],MIC,"E. coli W3110 [1]; W3110, WT, broth microdilution, read-out: MIC E. coli W3110",1.6 µM
same,MIC,K. pneumoniae ATCC 29665; [5],3.1 µM
same,MIC,A. baumannii ATCC BAA747; [6],25 µM
same,MIC,P. aeruginosa ATCC 27853; [7],> 50 µM
same,MIC,[2]; [8],> 50 µM
same,MIC,[2]; [9],> 50 µM
same,MIC,E. coli ATCC 25922; [10],3.1 µM
same,FC,[3]; [11],8
same,MSC,[3]; E. coli 1075,6.25 µM
same,FC,[3]; [12],16
same,MSC,[3]; E. coli 552059.1,0.8 µM
same,FC,[3]; [13],16
same,MSC,[3]; E. coli 552060.1,0.8 µM
same,FC,[3]; [14],16
same,MSC,[3]; E. coli MVAST0072,0.8 µM
same,FC,[3]; [15],8
same,MSC,[3]; E. coli NCTC13463,0.4 µM
same,FC,[3]; [16],4
same,MSC,[3]; E. coli NCTC13846,3.1 µM
same,FC,[3]; [17],4
same,MSC,[3]; E. coli mcr-1,3.1 µM
same,MIC,[3]; [18],50 µM
same,MIC,[3]; [19],12.5 µM
same,MIC,[3]; [20],12.5 µM
same,MIC,[3]; [21],12.5 µM
same,MIC,[3]; [22],3.1 µM
same,MIC,[3]; [23],12.5 µM
O=S(=O)(NCCNCc1ccc(-c2ccc(F)nc2)cc1)c1cccc2cnccc12 [Compound 60],MIC,"E. coli W3110 [1]; W3110, read-out: MIC E. coli W3110",6.25 µM
same,MIC,K. pneumoniae ATCC 29665; [5],25 µM
same,MIC,K. pneumoniae ATCC 29665; [24],6.25 µM
same,MIC,A. baumannii ATCC BAA747; [6],> 50 µM
same,MIC,P. aeruginosa ATCC 27853; [7],> 50 µM
same,MIC,[2]; [8],> 50 µM
same,MIC,[2]; [9],> 50 µM
same,MIC,E. coli ATCC 25922; [10],12.5 µM
same,FC,[3]; [11],> 2
same,MSC,[3]; E. coli 1075,25 µM
same,FC,[3]; [12],16
same,MSC,[3]; E. coli 552059.1,3.1 µM
same,FC,[3]; [13],16
same,MSC,[3]; E. coli 552060.1,3.1 µM
same,FC,[3]; [14],16
same,MSC,[3]; E. coli MVAST0072,3.1 µM
same,FC,[3]; [15],8
same,MSC,[3]; E. coli NCTC13463,1.6 µM
same,FC,[3]; [16],> 2
same,MSC,[3]; E. coli NCTC13846,25 µM
same,FC,[3]; [17],4
same,MSC,[3]; E. coli mcr-1,12.5 µM
same,MIC,[3]; [18],> 50 µM
same,MIC,[3]; [19],50 µM
same,MIC,[3]; [20],50 µM
same,MIC,[3]; [21],50 µM
same,MIC,[3]; E. coli mcr-1 (MCR),50 µM
same,MIC,[3]; [22],12.5 µM
same,MIC,[3]; [23],> 50 µM
"O=C(O)c1cn(C2CC2)c2cc(N3CCNCC3)c(F)cc2c1=O [CIP, ciprofloxacin]",MIC,E. coli W3110 [1]; W3110,7.8 ng/mL
same,MIC,"E. coli W3110 [1]; W3110, read-out: MIC E. coli WT strain",0.024 µM
same,MIC,K. pneumoniae ATCC 29665; [24],0.012 µM
same,MIC,"A. baumannii ATCC BAA747; Acinetobacter baumannii, ATCCBAA747, read-out: MIC A. baumannii ATCC BAA747",0.755 µM
same,MIC,"P. aeruginosa ATCC 27853; Pseudomonas aeruginosa, ATCC27853, read-out: MIC P. aeruginosa ATCC 27853",0.377 µM
same,MIC,"[2]; Staphylococcus aureus, read-out: MIC S. aureus ATCC 29213",0.755 µM
same,MIC,"[2]; Staphylococcus aureus, read-out: MIC S. aureus ATCC BAA1717",> 0.755 µM
same,MIC,"E. coli ATCC 25922; Escherichia coli, ATCC25922, read-out: MIC E. coli ATCC 25922",0.024 µM
same,"checkerboard plate reading, Average values",E. coli W3110 [4]; Ciprofloxacin 1.5625 nM + PMBN 1 µM,0.8906
same,"checkerboard plate reading, Average values",E. coli W3110 [4]; Ciprofloxacin 1.5625 nM + PMBN 2 µM,0.8911
same,"checkerboard plate reading, Average values",E. coli W3110 [4]; Ciprofloxacin 1.5625 nM + PMBN 4 µM,0.726
same,"checkerboard plate reading, Average values",E. coli W3110 [4]; Ciprofloxacin 1.5625 nM + PMBN 8 µM,0.6303
same,"checkerboard plate reading, Average values",E. coli W3110 [4]; Ciprofloxacin 3.125 nM + PMBN 0 µM,0.9278
same,"checkerboard plate reading, Average values",E. coli W3110 [4]; Ciprofloxacin 3.125 nM + PMBN 0.5 µM,0.8723
same,"checkerboard plate reading, Average values",E. coli W3110 [4]; Ciprofloxacin 3.125 nM + PMBN 1 µM,0.849
same,"checkerboard plate reading, Average values",E. coli W3110 [4]; Ciprofloxacin 3.125 nM + PMBN 2 µM,0.8236
same,"checkerboard plate reading, Average values",E. coli W3110 [4]; Ciprofloxacin 3.125 nM + PMBN 4 µM,0.7354
same,"checkerboard plate reading, Average values",E. coli W3110 [4]; Ciprofloxacin 3.125 nM + PMBN 8 µM,0.666
same,"checkerboard plate reading, Average values",E. coli W3110 [4]; Ciprofloxacin 3.125 nM + PMBN 16 µM,0.8076
same,"checkerboard plate reading, Average values",E. coli W3110 [4]; Ciprofloxacin 3.125 nM + PMBN 32 µM,0.5963
same,"checkerboard plate reading, Average values",E. coli W3110 [4]; Ciprofloxacin 6.25 nM + PMBN 0 µM,0.8608
same,"checkerboard plate reading, Average values",E. coli W3110 [4]; Ciprofloxacin 6.25 nM + PMBN 0.5 µM,0.801
same,"checkerboard plate reading, Average values",E. coli W3110 [4]; Ciprofloxacin 6.25 nM + PMBN 1 µM,0.7994
same,"checkerboard plate reading, Average values",E. coli W3110 [4]; Ciprofloxacin 6.25 nM + PMBN 2 µM,0.8003
same,"checkerboard plate reading, Average values",E. coli W3110 [4]; Ciprofloxacin 6.25 nM + PMBN 4 µM,0.7289
same,"checkerboard plate reading, Average values",E. coli W3110 [4]; Ciprofloxacin 6.25 nM + PMBN 8 µM,0.6534
same,"checkerboard plate reading, Average values",E. coli W3110 [4]; Ciprofloxacin 6.25 nM + PMBN 16 µM,0.5862
same,"checkerboard plate reading, Average values",E. coli W3110 [4]; Ciprofloxacin 6.25 nM + PMBN 32 µM,0.4866
same,"checkerboard plate reading, Average values",E. coli W3110 [4]; Ciprofloxacin 12.5 nM + PMBN 0 µM,0.8404
same,"checkerboard plate reading, Average values",E. coli W3110 [4]; Ciprofloxacin 12.5 nM + PMBN 0.5 µM,0.7355
same,"checkerboard plate reading, Average values",E. coli W3110 [4]; Ciprofloxacin 12.5 nM + PMBN 1 µM,0.7301
same,"checkerboard plate reading, Average values",E. coli W3110 [4]; Ciprofloxacin 12.5 nM + PMBN 2 µM,0.723
same,"checkerboard plate reading, Average values",E. coli W3110 [4]; Ciprofloxacin 12.5 nM + PMBN 4 µM,0.67
same,"checkerboard plate reading, Average values",E. coli W3110 [4]; Ciprofloxacin 12.5 nM + PMBN 8 µM,0.5682
same,"checkerboard plate reading, Average values",E. coli W3110 [4]; Ciprofloxacin 12.5 nM + PMBN 16 µM,0.6754
same,"checkerboard plate reading, Average values",E. coli W3110 [4]; Ciprofloxacin 12.5 nM + PMBN 32 µM,0.5017
same,"checkerboard plate reading, Average values",E. coli W3110 [4]; Ciprofloxacin 25 nM + PMBN 0 µM,0.4892
same,"checkerboard plate reading, Average values",E. coli W3110 [4]; Ciprofloxacin 25 nM + PMBN 0.5 µM,0.5201
same,"checkerboard plate reading, Average values",E. coli W3110 [4]; Ciprofloxacin 25 nM + PMBN 1 µM,0.4961
same,"checkerboard plate reading, Average values",E. coli W3110 [4]; Ciprofloxacin 25 nM + PMBN 2 µM,0.4386
same,"checkerboard plate reading, Average values",E. coli W3110 [4]; Ciprofloxacin 25 nM + PMBN 4 µM,0.4173
same,"checkerboard plate reading, Average values",E. coli W3110 [4]; Ciprofloxacin 25 nM + PMBN 8 µM,0.2541
same,"checkerboard plate reading, Average values",E. coli W3110 [4]; Ciprofloxacin 25 nM + PMBN 16 µM,0.196
same,"checkerboard plate reading, Average values",E. coli W3110 [4]; Ciprofloxacin 25 nM + PMBN 32 µM,0.2103
same,"checkerboard plate reading, Average values",E. coli W3110 [4]; Ciprofloxacin 50 nM + PMBN 0 µM,0.1991
same,"checkerboard plate reading, Average values",E. coli W3110 [4]; Ciprofloxacin 50 nM + PMBN 0.5 µM,0.2079
same,"checkerboard plate reading, Average values",E. coli W3110 [4]; Ciprofloxacin 50 nM + PMBN 1 µM,0.2136
same,"checkerboard plate reading, Average values",E. coli W3110 [4]; Ciprofloxacin 50 nM + PMBN 2 µM,0.1771
same,"checkerboard plate reading, Average values",E. coli W3110 [4]; Ciprofloxacin 50 nM + PMBN 4 µM,0.1678
same,"checkerboard plate reading, Average values",E. coli W3110 [4]; Ciprofloxacin 50 nM + PMBN 8 µM,0.1671
same,"checkerboard plate reading, Average values",E. coli W3110 [4]; Ciprofloxacin 50 nM + PMBN 16 µM,0.1685
same,"checkerboard plate reading, Average values",E. coli W3110 [4]; Ciprofloxacin 50 nM + PMBN 32 µM,0.1738
same,MIC,"E. coli W3110 [4]; Escherichia coli, W3110",0.05 µM
same,MIC E. coli + 8 μM PMBN,E. coli W3110 [4]; LPS disruption (pharmacological),0.024 µM
same,synergy with PMBN,E. coli W3110 [4]; checkerboard,does not have an effect and none
same,MSC,"E. coli W3110 [4]; checkerboard with PMBN, E. coli W3110",0.025 µM
